This note sets out measurements from patent US4612318A, “CNS-depressant and analgesic tricyclo-[pyrazolo-[3,4-6]-pyridine] derivatives and pharmaceutical compositions thereof” (Gruppo Lepetit S.p.A., priority 1982, dated 1986).

The term LD50 denotes the dose at which mortality reaches 50%. The low end stands for greater toxicity, the high end for lower toxicity.

Structures are written as SMILES. Where only a bound is given, the exact number is not on record here.

In data set [1] the test system is writhing in mice intraperitoneally administered with p-phenylquinone. Put plainly: "writhing test" (p-phenylquinone) for analgesia. The data set is classed as in vivo. As for the experimental part: (§1) Hendershot and J. Forsaith, in J. Pharm. Exp. Therap. […] Int. Pharmacodyn. […] In the former the disappearance or the reduction of writhing in mice, intraperitoneally administered, with p-phenylquinone--a substance known to produce pain especially in the place of injection--is evaluated; the latter test is used to evaluate the ratio of relief from the pain due to compression of oedema paws in rats orally administered with the test compound.
A general note: An intraperitoneal irritant provokes the stretching counted in writhing tests.

The test system of data set [2] is pain due to compression of oedema paws in rats. Put plainly: "pain relief test" (compression of oedema paws) for analgesia. The data set is classed as in vivo. As for the experimental part: as §1
Data set [3] has as its system secondary conditioned response (CR2), primary conditioned response (CR) and unconditioned response (UR) of rats. Put plainly: "pole climbing avoidance test" (anti-anxiety activity). It is filed as in vivo. To be noted: i.p., about 3 to about 60 mg/kg, groups of ten rats. The text has this:
The anti-anxiety activity of the compounds of the invention was investigated by means of the "pole climbing avoidance test", performed essentially as described by G. Maffii, in Journ. Pharm. Pharmacol., 11 129, (1959). A conditioned animal, generally rat, is deconditioned, i.e. is brought to its normal pyschic behaviour, by administration of a suitable amount of the compound to be tested. According to the authors, an inhibition of the secondary conditioned response (CR2) without a contemporary or coupled with a not significant inhibition of the primary conditioned response (CR) and the unconditioned response (UR) is a clear indication of an anti-anxiety effect since these last two parameters are connected with sedative and hypnotic properties.

Data set [4] concerns writhing in mice; pain due to compression of oedema paws in rats. Kind of data set: analgesic activity in both tests (writhing test in mice and pain relief test in rats). It is filed as in vivo. The source says: The analgesic activity of the compounds of the present invention was ascertained by means of two known tests for analgesia: the "writhing test" in mice, described by L.C. Hendershot and J. Forsaith, in J. Pharm. Exp. Therap. 125, 237, (1959), and the "pain relief test" in rats described by L. O. Randall and J. J. Selitto, in Arch. Int. Pharmacodyn. 111, 409, (1957). In the former the disappearance or the reduction of writhing in mice, intraperitoneally administered, with p-phenylquinone--a substance known to produce pain especially in the place of injection--is evaluated; the latter test is used to evaluate the ratio of relief from the pain due to compression of oedema paws in rats orally administered with the test compound.

Data set [5] in a line: acute toxicity (LD50) in mice. To be noted: mouse, in vivo, po; orally administered mice.
Data set [6] is described as follows: acute toxicity (LD50) in rats. To be noted: rat, in vivo, po; orally administered rats.

As to `CC(=O)Oc1ccccc1C(=O)O` [ASA, acetylsalicylic acid, reference compound], the “percent of inhibition of writhings” value in data set [1] (20 mg/kg per os) stood at 10%; in data set [1] (50 mg/kg per os) it was 57%; in data set [1] (100 mg/kg per os), 86%. Besides, the “percent of increase of the pain threshold” value in data set [2] (50 mg/kg per os) is 39%; in data set [2] (100 mg/kg per os), 84%; in data set [2] (300 mg/kg per os), 109%.
`Cc1nn(C)c(N)c1C1=CCN(C)CC1` [Example 1, 4-(1,2,5,6-tetrahydro-1-methyl-4-pyridinyl)-1,3-dimethyl 5-(1H)-pyrazolamine]: the “influence on the CR and the UR (in words)” value (shortened to “influence”) in data set [3] is on record as “no practical influence”.
Consider `CCC(=O)N1CC=C(c2c(C)nn(C)c2N)CC1` [Example 8], for which the “influence” value in data set [3] was “no practical influence”.
Take `Cc1nn(C)c2[nH]c(=O)c3c(c12)CCCC3` [Example 18, 6,7,8,9-Tetrahydro-1,3-dimethyl-3H-pyrazolo[3,4-c]isoquinoline-5(4H)-one]: the “influence” value in data set [3] is “no practical influence”.
As for `CCCCOc1nc2c(c(C)nn2C)c2c1CCCC2` [Example 27], in data set [3], the “influence” value was “no practical influence”.
Same read-out and setting: the result for `Cc1nn(C)c2nc(OCCO)c3c(c12)CCCC3` [Example 28] reads “no practical influence”.
Turning to `CCN(CC)CCn1c(=O)c2c(c3c(C)nn(C)c31)CCC2` [Example 39], the “analgesic activity in these tests (in words)” value (“analgesic activity” for short) in data set [4] was “good activity”.
In the case of `Cc1nn(C)c2c1c1c(c(=O)n2CCN2CCN(c3ccccc3)CC2)CCC1` [Example 40], the “influence” value in data set [3] was “no practical influence”.
Still for that read-out and setting: with `Cc1nn(C)c2c1c1c(c(=O)n2CCN2CCN(C)CC2)CCCC1` [Example 45] the entry was “no practical influence”.
Regarding `Cc1nn(C)c2ncc3c(c12)CCC3` [Example 55], the “analgesic activity” value in data set [4] is on record as “good activity”.
As to `Cc1nn(C)c2ncc3c(c12)CCCC3` [Example 57], in data set [4], the “analgesic activity” value was “highly effective”. The “percent of inhibition of writhings” value in data set [1] (10 mg/kg per os) came to 25%; in data set [1] (20 mg/kg per os), 51%; in data set [1] (50 mg/kg per os), 89%. In addition, the “potency ratio co. 57:ASA” value in data set [1] (writhing test, per os) was found to be 6.6; in data set [2] (pain relief test, per os), 2.6. The LD50 in data set [5] is more than 1000 mg/kg; in data set [6] it was 650 mg/kg. Besides, the “percent of increase of the pain threshold” value in data set [2] (20 mg/kg per os) is given as 78%; in data set [2] (50 mg/kg per os), 115%; in data set [2] (100 mg/kg per os) it was 172%.
